# From patent US20220217980A1, “DITHIOCARBAMATE FUNGICIDE MACROMOLECULAR COMPLEXES” (Adama Makhteshim Ltd., priority 2019, published 2022)
# Legend:
# [1] = Zeta potential analysis of mancozeb dispersions with and without polycations (Zetasizer Nano); type: physicochemical
# Source text: Zeta potential is an indicator for complexation and stability of a dispersion. A zeta potential close to zero between −10 mV and +10 Mv indicates a maximum interaction between polyelectrolytes and MZ. The Zeta potential is the charge that develops at the interface between a solid surface and its liquid medium. Zeta potential values give a value of the net charge (in mV) on particle surfaces.
# To a 1 g/l aqueous polycation solution (chitosan (CTS), ϵ-poly-L-lysine or polyallylamine (PAA)), 5, 40, 60, 80 and 120 g/l of MZ powder was added, resulting in ratios 1:5, 1:40, 1:60, 1:80 and 1:120 (based on weigh/weight % of dry material), respectively. Mancozeb added to an aqueous solution served as a control. The dispersions were mixed for 10 min on a vortexing device.
# The different polycation-mancozeb incubations were analyzed for the Zeta potential with a Zetasizer Nano (Malvern Instruments. United Kingdom).
# [2] = at 20° C.; cited from earlier work
smiles,measurement,setting,value
"S=C([S-])NCCNC(=S)[S-].[Mn+2].[Zn] [Mancozeb, zinc; manganese(2+); N-[2-(sulfidocarbothioylamino)ethyl]carbamodithioate]",zeta potential,[1]; ratio polycation:mancozeb 1:5,−18.2 mV
same,zeta potential,[1]; ratio polycation:mancozeb 1:40,−20.6 mV
same,zeta potential,[1]; ratio polycation:mancozeb 1:60,−20.5 mV
same,zeta potential,[1]; ratio polycation:mancozeb 1:80,−18.9 mV
same,zeta potential,[1]; ratio polycation:mancozeb 1:120,−18.3 mV
same,solubility,[2],about 6.2 mg per liter
